Test results from patent US10881650B2, “Pharmaceutical compositions” (priority 2007, dated 2021).
“Also recorded” adds a separate entry of the source.

Columns and labels:
[1] = Serum levels of DHEA and eleven metabolites after daily intravaginal DHEA suppositories (clinical trial ERC-213); format: in vivo, 40-75 year-old postmenopausal women; details: 0.5% DHEA intravaginal
Text: The primary objective of that study was the evaluation of the systemic bioavailability of DHEA and its metabolites following daily intravaginal application of suppositories at four different DHEA concentrations. This study was a randomized, placebo-controlled and double-blind trial of 10-subjects per arm.

[2] = Bioavailability and metabolism of oral and percutaneous DHEA: serum steroids on 1st and 14th day
Text: Thirty-six healthy 60-70-year-old postmenopausal women participated in the study after IRB approval and having given their written informed consent. Body weight was within ±20% of normal body weight according to Metropolitan Life Tables.
This study was a randomized open-label trial of 12 subjects per arm. After written informed consent was obtained and women were found eligible, each subject was randomized to receive DHEA by cream, gel or orally. Daily, before breakfast, for 14 days, subjects received, at the research clinic, either 4 g of 10% DHEA gel or 4 g of 10% DHEA cream applied on a total 30 cm×30 cm area of the thighs or two 50 mg capsules of DHEA orally before breakfast.
Blood sampling was performed at 08:00-09:00 h at screening and before application of DHEA, on the first day of dosing, as well as on days 2, 4, 7, 10 and 14. On the 1st and 14th days, blood samples were obtained at 0.5 h, 1 h, 1.5 h, 2 h, 3 h, 4 h, 5 h, 6 h, 7 h, 8 h, 12 h and 24 h following DHEA administration.
DHEA, DHEA-S, androst-5-ene-3β,17β-diol (5-diol), testosterone, androstenedione (4-dione), 17β-estradiol (E2), estrone (E1), estrone sulfate (E1-S), androsterone glucuronide (ADT-G), and androstane-3*,17β-diol glucuronide (3α-diol-G) were measured by gas chromatography/mass spectrometry (DHEA, 5-diol, 4-dione, testosterone, E1 and E2) using electron impact or chemical ionization and by liquid chromatography/tandem mass spectrometry using turboionspray (DHEA-S, E1-S, ADT-G and 3α-diol-G) as described (Labrie, Bélanger et al., 2006; Labrie, Bélanger, et al, 2007b and Swanson et al. 2007).
On days 1 and 14, the area under the curve of the serum concentration of each steroid was measured between 0 h and 24 h (AUC0-24 h). The areas under the curves were calculated by a linear trapezoidal method (model-independent). The relative bioavailability of the DHEA gel, DHEA cream and DHEA capsules was based on the mean difference in the log-transformed AUC values. All calculations were performed with the SAS software (SAS Institute, Cary, N.C., USA).

endometrium [3] = assay: Endometrial biopsy histology (ERC-210); format: in vivo, postmenopausal women; details: 3 months of intravaginal administration
Experimental: Endometrial biopsy was performed at screening and at month 3 at end of study. All biopsies were examined by the same pathologist at the central laboratory (Dr. Robert Dubé, Department of cytology-pathology, Enfant-Jésus Hospital, Quebec City, Canada).

[4] = tested on: postmenopausal women with vaginal atrophy; assay: Vaginal examination: secretions, color, epithelial integrity, surface thickness (ERC-210); format: in vivo; details: 2, 4, 8 and 12 weeks
Text: At the same time intervals of 2, 4, 8 and 12 weeks, the gynecologist or physician in charge of the study at each site performed a vaginal exam to evaluate the degree of severity (none, mild, moderate or severe, analyzed using values of 0, 1, 2 and 3, respectively) for the main signs of vaginal atrophy, namely vaginal secretions, vaginal color, vaginal epithelial integrity and vaginal epithelial surface thickness. […] In fact, the beneficial effects observed by the gynecologist and or physician are almost superimposable to those self-reported by women on their most bothersome symptoms.
Vaginal examination was performed at screening and then at day 1 and at 2, 4, 8 and 12 weeks. Vaginal secretions, vaginal color, vaginal epithelial integrity and vaginal epithelial surface thickness were evaluated according to the following degrees of severity: none, mild, moderate or severe.

[5] = cited from earlier work
endometrium [6] = details: cited from earlier work
[7] = one week daily intravaginal, mass spectrometry (Labrie, Cusan et al. 2008); cited from earlier work
[8] = tested on: postmenopausal women with vaginal atrophy; details: cited from earlier work
[9] = 24 h after 14th daily administration, oral or percutaneous
[10] = daily oral 50 mg (Arlt et al. 2001)

With `C[C@]12CC[C@H](O)CC1=CC[C@@H]1[C@@H]2CC[C@]2(C)C(=O)CC[C@@H]12` [DHEA, dehydroepiandrosterone] the “Serum levels of active estrogens (E1, E2, E1S) and androgens (testo, DHT)” value [1] was “not significantly affected; also recorded: does not increase”, the “Change in serum E1, E2 or testosterone AUC0-24 h” value ([2]; 14th day compared to predosing) was “no significant change” and the “Change in serum DHEA-S” value ([2]; 14th day, application of DHEA on the skin) was “No significant change”. The “Change in serum E1-S” value [2, 9] was “did not change”, the “Change in serum levels of E1 or E2” value [2, 9] was “no significant change” and the “Change of serum ADT-G or 3α-diol-G” value ([2]; day 1, up to 24 h, 4 g of 10% DHEA on the skin) was “no significant change”. The “Change in serum ADT-G” value ([2]; day 14, application of DHEA on the skin) was “No significant change”, the “Change in serum 3α-diol-G” value ([2]; day 14, percutaneous administration) was “No significant change” and the “Higher level of transformation of DHEA into ADT-G and 3α-diol-G, oral vs percutaneous” value ([2]; female, human, serum, po) was “approximately 10 fold”. For the same molecule, the “Transformation of DHEA into 4-dione, oral compared to percutaneous” value ([2]; female, human, serum, po) was 2.70-3.76 times, the “Change in serum E1-S” value ([2]; first 24 h) was “did not change significantly” and the “Effect on serum levels of E1 or E2” value ([2]; first 24 h, oral or percutaneous route) was “no statistically significant effect”. For the same molecule, the “Effect on endometrial histology” value (endometrium [3]) was “no effect on endometrial histology”, the “Signs of vaginal atrophy at vaginal exam” value [4] was “highly statistically significant improvement of all four signs of vaginal atrophy” and the “Serum DHEA and testosterone levels” value ([5]; 23 h after last administration, 25 mg oral 6 months) was “not changed significantly”. For the same molecule, the “Effect on serum testosterone or DHT” value [5, 10] was “no significant effect”, the “Increase of DHEA and ADT-G” value [5, 10] was 80-90% and the “Androgen metabolites as % of levels found in premenopausal women” value ([5]; daily oral 100 mg (Labrie, Bélanger et al. 2007)) was 74%.
In the case of `CCCCCCCCCCC(=O)O[C@H]1CC[C@H]2[C@@H]3CCC4=CC(=O)CC[C@]4(C)[C@H]3CC[C@]12C` [testosterone undecanoate], the “Effect on the endometrium” value (endometrium [6]; 40 mg every second day (Zang 2007)) is given as “no effect on the endometrium”.
In the case of `C[C@]12CC[C@@H]3c4ccc(O)cc4CC[C@H]3[C@@H]1CC[C@@H]2O` [E2, 17β-estradiol], the “Increase in serum E2” value [7] is given as 5 fold, the “Cases with persisting dyspareunia” value ([8]; 25 μg intravaginally, 12 months (Simunic 2003)) is given as 12.4% and the “Patients having a pH less than 5.0” value ([8]; 12 weeks intravaginal 25 μg (Bachmann 2008)) is given as 51%.
For `CCCCC(=O)O[C@H]1CC[C@H]2[C@@H]3CCc4cc(O)ccc4[C@H]3CC[C@]12C` [estradiol valerate], the “Increase of Ki labeling” value (endometrium [6]; 2 mg/day, 3 months (Zang 2007)) is listed as 50%.
For `C[C@]12CC[C@H]3[C@@H](CCC4=CC(=O)CC[C@@]43C)[C@@H]1CC[C@@H]2O` [testosterone], the “Proliferation with simultaneous administration of testosterone” value (endometrium [6]; with estradiol valerate 2 mg/day (Zang 2007)) is listed as 28%.
